{"source": "ChEMBL document CHEMBL3885881", "about": "“DrugMatrix”", "species": "Rattus norvegicus", "assay": "DrugMatrix - Regimen: Daily Repeat", "assay_type": "toxicity, organism-based, Sprague-Dawley", "set-up": "regimen Daily Repeat, gender Male, age 6-8 weeks", "settings": "in vivo, iv, 20 mg/kg, dose level Low, vehicle 100 % SALINE; for ABSOLUTE BASOPHIL / ABSOLUTE EOSINOPHIL / ABSOLUTE LYMPHOCYTE / ABSOLUTE MONOCYTE / ABSOLUTE SEGMENTED NEUTROPHIL / BASOPHIL / EOSINOPHIL / ERYTHROCYTE COUNT / HEMATOCRIT / HEMOGLOBIN / LEUKOCYTE COUNT / LYMPHOCYTE / MEAN CORPUSCULAR HEMOGLOBIN / MONOCYTE / NEUTROPHIL / NUCLEATED RED BLOOD CELLS / PLATELET COUNT: tissue Blood; for ALANINE AMINOTRANSFERASE / ALBUMIN / ALKALINE PHOSPHATASE / ASPARTATE AMINOTRANSFERASE / BLOOD UREA NITROGEN / CARBON DIOXIDE / CHLORIDE / CHOLESTEROL / CREATINE PHOSPHOKINASE / CREATININE / GLUCOSE / LACTATE DEHYDROGENASE / LIPASE / PHOSPHORUS / POTASSIUM / SODIUM / TOTAL BILIRUBIN / TOTAL PROTEIN / URIC ACID: tissue Plasma", "data": [{"compound": "CCC[C@@H]1C[C@@H](C(=O)N[C@@H]([C@H]2O[C@H](SC)[C@H](O)[C@@H](O)[C@H]2O)[C@H](C)Cl)N(C)C1", "note": "[CLINDAMYCIN]", "values": [{"measurement": "ABSOLUTE BASOPHIL", "setting": "72 h, time 3 day", "value": 0, "unit": "CELLS/uL"}, {"measurement": "ABSOLUTE EOSINOPHIL", "setting": "72 h, time 3 day", "value": 40, "unit": "CELLS/uL"}, {"measurement": "ABSOLUTE LYMPHOCYTE", "setting": "72 h, time 3 day", "value": 9607.67, "unit": "CELLS/uL"}, {"measurement": "ABSOLUTE MONOCYTE", "setting": "72 h, time 3 day", "value": 40, "unit": "CELLS/uL"}, {"measurement": "ABSOLUTE SEGMENTED NEUTROPHIL", "setting": "72 h, time 3 day", "value": 712.33, "unit": "CELLS/uL"}, {"measurement": "BASOPHIL", "setting": "72 h, time 3 day", "value": 0, "unit": "%"}, {"measurement": "EOSINOPHIL", "setting": "72 h, time 3 day", "value": 0.33, "unit": "%"}, {"measurement": "ERYTHROCYTE COUNT", "setting": "72 h, time 3 day", "value": 5.49, "unit": "x10E6/uL"}, {"measurement": "HEMATOCRIT", "setting": "72 h, time 3 day", "value": 34.93, "unit": "%"}, {"measurement": "HEMOGLOBIN", "setting": "72 h, time 3 day", "value": 13.7, "unit": "G/DL"}, {"measurement": "LEUKOCYTE COUNT", "setting": "72 h, time 3 day", "value": 10.4, "unit": "x10E3/uL"}, {"measurement": "LYMPHOCYTE", "setting": "72 h, time 3 day", "value": 92.67, "unit": "%"}, {"measurement": "MEAN CORPUSCULAR HEMOGLOBIN", "setting": "72 h, time 3 day", "value": 24.97, "unit": "pg"}, {"measurement": "MONOCYTE", "setting": "72 h, time 3 day", "value": 0.33, "unit": "%"}, {"measurement": "NEUTROPHIL", "setting": "72 h, time 3 day", "value": 6.67, "unit": "%"}, {"measurement": "NUCLEATED RED BLOOD CELLS", "setting": "72 h, time 3 day", "value": "0 /100WBC"}, {"measurement": "PLATELET COUNT", "setting": "72 h, time 3 day", "value": 1194.33, "unit": "x10E3/uL"}, {"measurement": "ALANINE AMINOTRANSFERASE", "setting": "72 h, time 3 day", "value": 42, "unit": "u/L"}, {"measurement": "ALBUMIN", "setting": "72 h, time 3 day", "value": 4.4, "unit": "G/DL"}, {"measurement": "ALKALINE PHOSPHATASE", "setting": "72 h, time 3 day", "value": 375.67, "unit": "u/L"}, {"measurement": "ASPARTATE AMINOTRANSFERASE", "setting": "72 h, time 3 day", "value": 82.67, "unit": "u/L"}, {"measurement": "BLOOD UREA NITROGEN", "setting": "72 h, time 3 day", "value": 19, "unit": "mg/dL"}, {"measurement": "CARBON DIOXIDE", "setting": "72 h, time 3 day", "value": 35.33, "unit": "mmol/L"}, {"measurement": "CHLORIDE", "setting": "72 h, time 3 day", "value": 97, "unit": "MEQ/L"}, {"measurement": "CHOLESTEROL", "setting": "72 h, time 3 day", "value": 81.33, "unit": "mg/dL"}, {"measurement": "CREATINE PHOSPHOKINASE", "setting": "72 h, time 3 day", "value": 250, "unit": "u/L"}, {"measurement": "CREATININE", "setting": "72 h, time 3 day", "value": 0.19, "unit": "mg/dL"}, {"measurement": "GLUCOSE", "setting": "72 h, time 3 day", "value": 124.33, "unit": "mg/dL"}, {"measurement": "LACTATE DEHYDROGENASE", "setting": "72 h, time 3 day", "value": 260.67, "unit": "u/L"}, {"measurement": "LIPASE", "setting": "72 h, time 3 day", "value": 11, "unit": "u/L"}, {"measurement": "PHOSPHORUS", "setting": "72 h, time 3 day", "value": 9.63, "unit": "mg/dL"}, {"measurement": "POTASSIUM", "setting": "72 h, time 3 day", "value": 6.58, "unit": "MEQ/L"}, {"measurement": "SODIUM", "setting": "72 h, time 3 day", "value": 143.4, "unit": "MEQ/L"}, {"measurement": "TOTAL BILIRUBIN", "setting": "72 h, time 3 day", "value": 0.17, "unit": "mg/dL"}, {"measurement": "TOTAL PROTEIN", "setting": "72 h, time 3 day", "value": 6.4, "unit": "G/DL"}, {"measurement": "URIC ACID", "setting": "72 h, time 3 day", "value": 0.87, "unit": "mg/dL"}, {"measurement": "ABSOLUTE BASOPHIL", "setting": "120 h, time 5 day", "value": 0, "unit": "CELLS/uL"}, {"measurement": "ABSOLUTE EOSINOPHIL", "setting": "120 h, time 5 day", "value": 97.33, "unit": "CELLS/uL"}, {"measurement": "ABSOLUTE LYMPHOCYTE", "setting": "120 h, time 5 day", "value": 13386.67, "unit": "CELLS/uL"}, {"measurement": "ABSOLUTE MONOCYTE", "setting": "120 h, time 5 day", "value": 100.67, "unit": "CELLS/uL"}, {"measurement": "ABSOLUTE SEGMENTED NEUTROPHIL", "setting": "120 h, time 5 day", "value": 1348.67, "unit": "CELLS/uL"}, {"measurement": "BASOPHIL", "setting": "120 h, time 5 day", "value": 0, "unit": "%"}, {"measurement": "EOSINOPHIL", "setting": "120 h, time 5 day", "value": 0.67, "unit": "%"}, {"measurement": "ERYTHROCYTE COUNT", "setting": "120 h, time 5 day", "value": 5.84, "unit": "x10E6/uL"}, {"measurement": "HEMATOCRIT", "setting": "120 h, time 5 day", "value": 35.8, "unit": "%"}, {"measurement": "HEMOGLOBIN", "setting": "120 h, time 5 day", "value": 14.27, "unit": "G/DL"}, {"measurement": "LEUKOCYTE COUNT", "setting": "120 h, time 5 day", "value": 14.93, "unit": "x10E3/uL"}, {"measurement": "LYMPHOCYTE", "setting": "120 h, time 5 day", "value": 89.67, "unit": "%"}, {"measurement": "MEAN CORPUSCULAR HEMOGLOBIN", "setting": "120 h, time 5 day", "value": 24.47, "unit": "pg"}, {"measurement": "MONOCYTE", "setting": "120 h, time 5 day", "value": 0.67, "unit": "%"}, {"measurement": "NEUTROPHIL", "setting": "120 h, time 5 day", "value": 9, "unit": "%"}, {"measurement": "NUCLEATED RED BLOOD CELLS", "setting": "120 h, time 5 day", "value": "0 /100WBC"}, {"measurement": "PLATELET COUNT", "setting": "120 h, time 5 day", "value": 1266.67, "unit": "x10E3/uL"}, {"measurement": "ALANINE AMINOTRANSFERASE", "setting": "120 h, time 5 day", "value": 57.67, "unit": "u/L"}, {"measurement": "ALBUMIN", "setting": "120 h, time 5 day", "value": 4.33, "unit": "G/DL"}, {"measurement": "ALKALINE PHOSPHATASE", "setting": "120 h, time 5 day", "value": 400.67, "unit": "u/L"}, {"measurement": "ASPARTATE AMINOTRANSFERASE", "setting": "120 h, time 5 day", "value": 85, "unit": "u/L"}, {"measurement": "BLOOD UREA NITROGEN", "setting": "120 h, time 5 day", "value": 18.67, "unit": "mg/dL"}, {"measurement": "CARBON DIOXIDE", "setting": "120 h, time 5 day", "value": 35.33, "unit": "mmol/L"}, {"measurement": "CHLORIDE", "setting": "120 h, time 5 day", "value": 100.33, "unit": "MEQ/L"}, {"measurement": "CHOLESTEROL", "setting": "120 h, time 5 day", "value": 70.67, "unit": "mg/dL"}, {"measurement": "CREATINE PHOSPHOKINASE", "setting": "120 h, time 5 day", "value": 217, "unit": "u/L"}, {"measurement": "CREATININE", "setting": "120 h, time 5 day", "value": 0.19, "unit": "mg/dL"}, {"measurement": "GLUCOSE", "setting": "120 h, time 5 day", "value": 148.33, "unit": "mg/dL"}, {"measurement": "LACTATE DEHYDROGENASE", "setting": "120 h, time 5 day", "value": 152.67, "unit": "u/L"}, {"measurement": "LIPASE", "setting": "120 h, time 5 day", "value": 8.33, "unit": "u/L"}, {"measurement": "PHOSPHORUS", "setting": "120 h, time 5 day", "value": 12.6, "unit": "mg/dL"}, {"measurement": "POTASSIUM", "setting": "120 h, time 5 day", "value": 7.37, "unit": "MEQ/L"}, {"measurement": "SODIUM", "setting": "120 h, time 5 day", "value": 144.4, "unit": "MEQ/L"}, {"measurement": "TOTAL BILIRUBIN", "setting": "120 h, time 5 day", "value": 0.2, "unit": "mg/dL"}, {"measurement": "TOTAL PROTEIN", "setting": "120 h, time 5 day", "value": 6.43, "unit": "G/DL"}, {"measurement": "URIC ACID", "setting": "120 h, time 5 day", "value": 1.67, "unit": "mg/dL"}]}]}
